Assay results taken from patent US12679827B2, “Pyrimidine compounds and their pharmaceutical uses” (National Health Research Institutes, priority 2020, dated 2026).

Experiments:
[1] = system: NCI-H69; test: Small-cell-lung cancer cell proliferation inhibition assay (PrestoBlue), NCI-H69; format: cell-based; details: Homo sapiens, MYCN amplified SCLC cells, 72 hours
Method: (§1) Small cell lung cancer cells NCI-H82 (ATCC HTB-175, cMYC amplified), NCI-H446 (ATCC® HTB-171, cMYC amplified), and NCI-H69 (ATCC® HTB-119, MYCN amplified) were seeded at the density of 5000-10000 cells per well in 96-well plates. After 24 hours, the cancer cells were treated with each compound at various concentrations (0-10 μM) and then incubated for another 72 hours. IC50 values were computed based on duplicated 8-point titration.

[2] = system: NCI-H446; test: Small-cell-lung cancer cell proliferation inhibition assay (PrestoBlue), NCI-H446; format: cell-based; details: Homo sapiens, cMYC amplified SCLC cells, 72 hours
Method: as §1

[3] = system: NCI-H82; test: Small-cell-lung cancer cell proliferation inhibition assay (PrestoBlue), NCI-H82; format: cell-based; details: Homo sapiens, cMYC amplified SCLC cells, 72 hours
Method: as §1

[4] = target: T1, human Aurora A (amino acids 123-401) (Homo sapiens, UniProt O14965); test: Kinase-Glo Luminescent Kinase assay, in vitro inhibition of Aurora A kinase activity; format: biochemical; details: recombinant GST-tagged Aurora A, 5.0 μM ATP, 37° C., 120 minutes
T1 construct: human Aurora A (amino acids 123-401) was expressed in Sf9 insect cells; GST; made in house; host or cells: Sf9 insect cells
T1 sequence (O14965 123-401): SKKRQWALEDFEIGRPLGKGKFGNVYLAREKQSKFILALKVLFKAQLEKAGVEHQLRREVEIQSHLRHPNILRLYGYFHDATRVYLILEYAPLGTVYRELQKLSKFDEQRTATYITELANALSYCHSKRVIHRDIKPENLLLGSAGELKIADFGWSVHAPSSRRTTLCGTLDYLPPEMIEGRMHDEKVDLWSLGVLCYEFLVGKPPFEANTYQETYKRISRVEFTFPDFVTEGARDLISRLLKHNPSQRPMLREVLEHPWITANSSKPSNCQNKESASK
Method: Recombinant glutathione S-transferase (GST)-tagged N-terminal truncated human Aurora A (amino acids 123-401) was expressed in Sf9 insect cells and then purified by glutathione affinity chromatography to afford recombinant Aurora A. Recombinant Aurora A (150 ng) was reacted with each test compound (100 nM) in 50 μL of 50 mM Tris-HCl pH 7.4, 10 mM NaCl, 10 mM MgCl2, 0.01% bovine serum albumin, 5.0 μM ATP, 1 mM dithiothreitol, 15 μM tetra(-LRRASLG) peptide at 37° C. for 120 minutes. Then, to the reaction was added 50 μL of Kinase-Glo Plus Reagent. The resulting mixture was incubated at 25° C. for 20 minutes. A 70 μL aliquot of the mixture was transferred to a black microliter plate. Luminescence was measured using a Wallac Vector 1420 multilabel counter (PerkinElmer, USA).

Row | SMILES | IC50 [1] [nM] | IC50 [2] [nM] | IC50 [3] [nM] | IC50 [4] [nM]
1 | Cc1cc(Nc2cc(N3C[C@H](C)NC[C@H]3C)nc(N[C@H]3CCN(C(=O)c4ccc(Cl)cc4F)C3)n2)n[nH]1 [Compound 9] | < 1000 | < 1000 | < 1000 | 
2 | Cc1cc(Nc2cc(N3C[C@@H](C)N[C@@H](C)C3)nc(N[C@H]3CCN(C(=O)c4ccc(Cl)cc4F)C3)n2)n[nH]1 [Compound 10] | < 1000 | < 1000 | < 1000 | 
3 | COCCN1CCN(c2cc(Nc3cc(C)[nH]n3)nc(N[C@H]3CCN(C(=O)c4ccc(Cl)cc4F)C3)n2)CC1 [Compound 13] | < 1000 |  | < 1000 | < 100
4 | Cc1cc(Nc2cc(N3CCN(CC(F)(F)F)CC3)nc(N[C@H]3CCN(C(=O)c4ccc(Cl)cc4F)C3)n2)n[nH]1 [Compound 14] | < 1000 | < 1000 | < 1000 | < 100
5 | Cc1cc(Nc2cc(N3C[C@@H](C)N(C)[C@@H](C)C3)nc(N[C@H]3CCN(C(=O)c4ccc(Cl)cc4F)C3)n2)n[nH]1 [Compound 15] | < 1000 | < 1000 | < 1000 | < 100
6 | Cc1cc(Nc2cc(N3CCN(C4COC4)CC3)nc(N[C@H]3CCN(C(=O)c4ccc(Cl)cc4F)C3)n2)n[nH]1 [Compound 16] | < 1000 | < 1000 | < 1000 | < 100
7 | Cc1cc(Nc2cc(N3CCC(N(C)C)CC3)nc(N[C@H]3CCN(C(=O)c4cccc(Cl)c4F)C3)n2)n[nH]1 [Compound 21] | < 1000 | < 1000 | < 1000 | < 100
8 | CCN1CCN(c2cc(Nc3cc(C)[nH]n3)nc(N[C@H]3CCN(C(=O)c4ccc(Cl)nc4Cl)C3)n2)CC1 [Compound 54] |  | < 1000 | < 1000 | < 100
9 | CCN1CCN(c2cc(Nc3cc(C)[nH]n3)nc(N[C@H]3CCN(S(=O)(=O)c4ccc(Cl)cc4C)C3)n2)CC1 [Compound 62] |  | < 1000 | < 1000 | < 100
10 | CCN1CCN(c2cc(Nc3cc(C)[nH]n3)nc(N[C@H]3CCN(S(=O)(=O)c4ccc(Cl)cc4Cl)C3)n2)CC1 [Compound 63] |  | < 1000 | < 1000 | < 100
11 | CCN1CCN(c2cc(Nc3cc(C)[nH]n3)nc(N[C@H]3CCN(S(=O)(=O)c4cccc(Cl)c4F)C3)n2)CC1 [Compound 65] |  | < 1000 | < 1000 | < 100
12 | CCC(=O)n1nc(Nc2cc(N3CCN(CC)CC3)nc(N[C@H]3CCN(C(=O)c4ccc(Cl)cc4F)C3)n2)cc1C [Compound 72] | < 1000 | < 1000 | < 1000 | 
13 | CCN1CCN(c2cc(Nc3cc(C)nn3C(=O)C(C)(C)C)nc(N[C@H]3CCN(C(=O)c4ccc(Cl)cc4F)C3)n2)CC1 [Compound 73] | < 1000 | < 1000 | < 1000 | 
14 | CCN1CCN(c2cc(Nc3cc(C)n(C(=O)C(C)(C)C)n3)nc(N[C@H]3CCN(C(=O)c4ccc(Cl)cc4F)C3)n2)CC1 [Compound 74] | < 1000 | < 1000 | < 1000 | 
15 | CCN1CCN(c2cc(Nc3cc(C)n(COC(=O)C(C)(C)C)n3)nc(N[C@H]3CCN(C(=O)c4ccc(Cl)cc4F)C3)n2)CC1 [Compound 75] | < 1000 | < 1000 | < 1000 | 
16 | CCN1CCN(c2cc(Nc3cc(C)nn3C(=O)OCC(C)C)nc(N[C@H]3CCN(C(=O)c4ccc(Cl)cc4F)C3)n2)CC1 [Compound 78] | < 1000 | < 1000 | < 1000 | 
17 | CCN1CCN(c2cc(Nc3cc(C)n(C(=O)OCC(C)C)n3)nc(N[C@H]3CCN(C(=O)c4ccc(Cl)cc4F)C3)n2)CC1 [Compound 79] | < 1000 | < 1000 | < 1000 | 
18 | CCN1CCN(c2cc(Nc3cc(C)nn3C(=O)OC(C)(C)C)nc(N[C@H]3CCN(C(=O)c4ccc(Cl)cc4F)C3)n2)CC1 [Compound 80] | < 1000 | < 1000 | < 1000 | 
19 | CCN1CCN(c2cc(Nc3cc(C)n(C(=O)OC(C)(C)C)n3)nc(N[C@H]3CCN(C(=O)c4ccc(Cl)cc4F)C3)n2)CC1 [Compound 81] | < 1000 | < 1000 | < 1000 | 
20 | CCN1CCN(c2cc(Nc3cc(C)nn3C(=O)OCCOC)nc(N[C@H]3CCN(C(=O)c4ccc(Cl)cc4F)C3)n2)CC1 [Compound 82] | < 1000 | < 1000 | < 1000 | 

Row | SMILES | IC50 [1] [nM] | IC50 [2] [nM] | IC50 [3] [nM] | IC50 [4] [nM]
21 | CCN1CCN(c2cc(Nc3cc(C)n(C(=O)OCCOC)n3)nc(N[C@H]3CCN(C(=O)c4ccc(Cl)cc4F)C3)n2)CC1 [Compound 83] | < 1000 | < 1000 | < 1000 | 
22 | CCN1CCN(c2cc(Nc3cc(C)[nH]n3)nc(NC3CCN(Cc4cccc(Cl)c4F)CC3)n2)CC1 [Compound 88] |  | < 1000 | < 1000 | < 100
23 | Cc1cc(Nc2cc(N3CC(N(C)C)C3)nc(NC3CCN(C(=O)c4cccc(Cl)c4F)CC3)n2)n[nH]1 [Compound 89] |  | < 1000 | < 1000 | < 100
24 | Cc1cc(Nc2cc(N3CCN(C)CC3)nc(NC3CCN(C(=O)c4cccc(Cl)c4F)CC3)n2)n[nH]1 [Compound 90] | < 1000 | < 1000 | < 1000 | < 100
25 | Cc1cc(Nc2cc(N3CCC(N(C)C)CC3)nc(NC3CCN(C(=O)c4cccc(Cl)c4F)CC3)n2)n[nH]1 [Compound 92] | < 1000 | < 1000 | < 1000 | < 100
26 | CC(=O)N1CCN(c2cc(Nc3cc(C)[nH]n3)nc(NC3CCN(C(=O)c4cccc(Cl)c4F)CC3)n2)CC1 [Compound 93] | < 1000 | < 1000 | < 1000 | < 100
27 | Cc1cc(Nc2cc(N3CC[C@@H](N(C)C)C3)nc(NC3CCN(C(=O)c4cccc(Cl)c4F)CC3)n2)n[nH]1 [Compound 94] | < 1000 | < 1000 | < 1000 | < 100
28 | Cc1cc(Nc2cc(N(C)CCN(C)C)nc(NC3CCN(C(=O)c4cccc(Cl)c4F)CC3)n2)n[nH]1 [Compound 95] |  | < 1000 | < 1000 | < 100
29 | Cc1cc(Nc2cc(N3CC[C@H](N(C)C)C3)nc(NC3CCN(C(=O)c4cccc(Cl)c4F)CC3)n2)n[nH]1 [Compound 96] | < 1000 | < 1000 | < 1000 | < 100
30 | COC[C@H]1CCCN1c1cc(Nc2cc(C)[nH]n2)nc(NC2CCN(C(=O)c3cccc(Cl)c3F)CC2)n1 [Compound 97] | < 1000 | < 1000 | < 1000 | < 100
31 | COC1CN(c2cc(Nc3cc(C)[nH]n3)nc(NC3CCN(C(=O)c4cccc(Cl)c4F)CC3)n2)C1 [Compound 99] | < 1000 | < 1000 |  | < 100
32 | Cc1cc(Nc2cc(N3C[C@@H](C)N(C)[C@@H](C)C3)nc(NC3CCN(C(=O)c4cccc(Cl)c4F)CC3)n2)n[nH]1 [Compound 100] | < 1000 | < 1000 | < 1000 | < 100
33 | COCCN1CCN(c2cc(Nc3cc(C)[nH]n3)nc(NC3CCN(C(=O)c4cccc(Cl)c4F)CC3)n2)CC1 [Compound 101] | < 1000 | < 1000 |  | < 100
34 | Cc1cc(Nc2cc(N3C[C@@H](C)N[C@@H](C)C3)nc(NC3CCN(C(=O)c4cccc(Cl)c4F)CC3)n2)n[nH]1 [Compound 102] | < 1000 | < 1000 | < 1000 | < 100
35 | Cc1cc(Nc2cc(N3CCN(C4COC4)CC3)nc(NC3CCN(C(=O)c4cccc(Cl)c4F)CC3)n2)n[nH]1 [Compound 103] | < 1000 | < 1000 | < 1000 | < 100
36 | COC[C@@H]1CCCN1c1cc(Nc2cc(C)[nH]n2)nc(NC2CCN(C(=O)c3cccc(Cl)c3F)CC2)n1 [Compound 104] | < 1000 |  | < 1000 | < 100
37 | COC1CCN(c2cc(Nc3cc(C)[nH]n3)nc(NC3CCN(C(=O)c4cccc(Cl)c4F)CC3)n2)CC1 [Compound 105] | < 1000 | < 1000 | < 1000 | 
38 | Cc1cc(Nc2cc(N3CCN(CC(F)(F)F)CC3)nc(NC3CCN(C(=O)c4cccc(Cl)c4F)CC3)n2)n[nH]1 [Compound 106] | < 1000 | < 1000 | < 1000 | < 100
39 | CCOC(=O)n1nc(C)cc1Nc1cc(N2CCN(CC)CC2)nc(NC2CCN(C(=O)c3cccc(Cl)c3F)CC2)n1 [Compound 127] | < 1000 | < 1000 | < 1000 | 
